The values below come from patent publication US20240336596A1, “PARP7 INHIBITOR AND USE THEREOF” (NOVOSTAR PHARMACEUTICALS, LTD., priority 2022, published 2024).

The IC50 is the concentration that inhibits the measured activity by half.

A value given as a limit tells only on which side of the number the result lay.

Experiment [1] concerns the target T1, recombinant human PARP7 protein (Homo sapiens, UniProt Q7Z3E1).
T1 construct: purchased Abcam ab271651
T1 sequence (Q7Z3E1 1-657): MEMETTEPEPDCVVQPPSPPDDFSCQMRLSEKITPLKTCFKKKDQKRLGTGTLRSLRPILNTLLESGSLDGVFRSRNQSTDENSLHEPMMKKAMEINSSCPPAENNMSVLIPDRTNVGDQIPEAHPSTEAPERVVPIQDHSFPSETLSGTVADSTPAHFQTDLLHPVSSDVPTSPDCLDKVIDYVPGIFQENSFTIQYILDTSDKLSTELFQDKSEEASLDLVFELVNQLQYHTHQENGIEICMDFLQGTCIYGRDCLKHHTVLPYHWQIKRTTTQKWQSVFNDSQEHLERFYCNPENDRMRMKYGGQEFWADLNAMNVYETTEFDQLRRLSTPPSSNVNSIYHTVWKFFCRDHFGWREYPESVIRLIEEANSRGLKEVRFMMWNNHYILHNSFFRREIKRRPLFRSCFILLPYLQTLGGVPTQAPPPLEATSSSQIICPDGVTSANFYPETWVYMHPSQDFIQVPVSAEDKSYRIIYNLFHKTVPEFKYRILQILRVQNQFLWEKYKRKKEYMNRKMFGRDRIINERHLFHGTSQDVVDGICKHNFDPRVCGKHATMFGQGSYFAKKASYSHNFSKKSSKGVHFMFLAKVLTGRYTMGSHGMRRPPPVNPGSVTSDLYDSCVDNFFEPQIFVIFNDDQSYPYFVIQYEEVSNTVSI
Description: Inhibition of PARP7 biological enzyme activity (histone-coated plate, Biotin-NAD+, chemiluminescence). The class given is biochemical. The note with it: recombinant human PARP7, Biotin-NAD+ substrate. The procedure:
The recombinant human PARP7 protein kit (Abcam, catalog number ab271651) was used for the assay. According to the kit instructions, 30 μL of histone coating solution (1.5 μg/mL) was first applied to the 384 well holes of the reaction plate and coated at 4° C. for 2 hours. Then, the histone coated solution was washed off, and 50 μL sealing buffer was added to each well, and the sealing buffer was washed off after incubation at 25° C. for 60 minutes. 1000 times the concentration of the compound was 10 configured and diluted from 1 mM to 0.05 μM, and the configured compound was transferred to 384-well plates with 25 nL per well using Echo. The final concentration of the compound in the reaction system was 1000 nM, 333.33 nM, 111.11 nM, 37.03 nM, 12.34 nM, 4.11 nM, 1.37 nM, 0.45 nM, 0.15 nM, 0.05 nM, which was used as the test hole. At the same time, 25 nL DMSO was added to the negative control well and the positive control well. The PARP7 enzyme solution with a concentration of 1.67 times was prepared, and the PARP7 enzyme solution was added to the test hole and the positive control hole with 15 μL each, while the negative control hole was added with 15 μL base Buffer, and incubated at 25° C. for 15 minutes. Then 10 μL 2.5 times Biotin-NAD+ substrate solution was added and incubated at 25° C. for 60 min. After the reaction solution was washed off, the 384-well reaction plates were treated with closed buffer solution diluted with streptavidin-HRP (1:500), each well was 30 μL, and incubated at 25° C. for 30 min. After the HRP buffer was washed off, 30 μL HRP chemiluminescent substrate mixture was added to each well, and the luminescence signal (RLU) of each well was detected by Envision. Calculation formula: Inhibition rate %=(average positive control-RLU compound)/(average positive control-average negative control))*100%. The dose-response curves of each compound were fitted by GraphPad Prism 8 to get IC50 values. IC50 values less than 0.01 μM are labeled as “+++”, IC50 values from 0.01 to 0.1 µM are labeled as “++”, and IC50 values greater than 0.1 to 10.0 μM are labeled as “+”.

The next experiment deals with NCI-H1373 cancer cells. Description: NCI-H1373 cancer cell growth inhibition (CellTiter-Glo, 144 hours). The class given is cell-based. The note with it: Homo sapiens, 144 hours culture. Here is the method: Promega CellTiter-Glo cell activity assay kit (Item No.: Promege-G7573) was used to determine the cell activity. 90 μL NCI-H1373 cell suspension (ATCC, catalog No. CRL-5866, batch No. 58078716) was spread into the pores of the 96-well plate with 3500 cells per well. After 24 hours, the 10 μL prepared 10× compound working solution was added into the pores of the cell culture plate with a final concentration of 10 μM. 3.3333 μM, 1.1111 μM, 0.3704 μM, 0.1235 μM, 0.0412 μM, 0.0137 μM, 0.0046 μM, 0.0015 μM, 0.0005 μM, 10 μL DMSO was added to the solvent control, and the final concentration of DMSO was 0.2%. The 0-day plates were collected for analysis, and after 144 hours of culture, the growth condition of cells was detected according to the instructions of CellTiter-Glo cell activity assay kit. Add 50 μL of CellTiter-Glo working liquid into each hole of the cell culture plate, shake the plates in the dark for 2 minutes until cell lysis, and place at room temperature for 10 minutes to detect the luminous signal (RUL) of each cell hole on the 2104En Vision board reader.
Calculation formula: Growth inhibition rate %=(1−(RLU compound−RLU Day0)/(RLU solvent control−RLU Day0))*100%. The dose-response curves of each compound were fitted by GraphPad Prism 8 to obtain IC50 values.
For the matter, IC50 values less than 0.1 μM are labeled “+++”, values from 0.1 to 1 μM are labeled “++”, and values greater than 1 to 10 μM are labeled “+”.
(Cellular ATP, detected with luciferase, serves as a proxy for viable cell number.)

With `C[C@@H](/C=N/OCC(=O)N1CCN(c2ccc(C(F)(F)F)cn2)CC1)Nc1cn[nH]c(=O)c1C(F)(F)F` [Example 12, (S,E)-2-((6-oxo-5-(trifluoromethyl)-1,6-dihydropyridazin-4-yl)amino)propanal O-(2-oxo-2-(4-(5-(trifluoromethyl)pyridin-2-yl)piperazin-1-yl)ethyl) oxime], the values for the IC50 (in experiment [1]; with NCI-H1373 cancer cells) were less than 0.01 µM and 0.1 to 1 µM, respectively. For `C[C@@H](/C=N/OCC(=O)N1CCN(c2ccc(C#N)cn2)CC1)Nc1cn[nH]c(=O)c1C(F)(F)F` [Example 11, (S,E)-6-(4-(2-(((2-((6-oxo-5-(trifluoromethyl)-1,6-dihydropyridazin-4-yl)amino)propylidene)amino)oxy)acetyl)piperazin-1-yl)nicotinonitrile], the 50% inhibitory concentration (IC50) in experiment [1] was less than 0.01 µM; in the experiment with NCI-H1373 cancer cells it was 1 to 10 µM. For `C[C@@H](CONC(=O)/C=C1\CCN(c2ncc(C(F)(F)F)cn2)CC1F)Nc1cn[nH]c(=O)c1C(F)(F)F` (stereo partly drawn) [Example 23, (E)-2-(3-fluoro-1-(5-(trifluoromethyl)pyrimidin-2-yl)piperidin-4-ylidene)-N—((S)-2-((6-oxo-5-(trifluoromethyl)-1,6-dihydropyridazin-4-yl)amino)propoxy)acetamide] the same measures were less than 0.01 µM and 0.1 to 1 µM. On the same counts, the results for `O=C(CO/N=C1\CCC[C@@H]1Nc1cn[nH]c(=O)c1C(F)(F)F)N1CCN(c2ncc(C(F)(F)F)cn2)CC1` [Example 9, (S,E)-5-((2-((2-oxo-2-(4-(5-(trifluoromethyl)pyrimidin-2-yl)piperazin-1-yl)ethoxy)imino)cyclopentyl)amino)-4-(trifluoromethyl)pyridazin-3(2H)-one] are less than 0.01 µM and 0.1 to 1 µM. For `C[C@@H](CO/N=C/C(=O)N1CCN(c2ncc(C(F)(F)F)cn2)CC1)Nc1cn[nH]c(=O)c1C(F)(F)F` [Example 15, (S,E)-2-oxo-2-(4-(5-(trifluoromethyl)pyrimidin-2-yl)piperazin-1-yl)acetaldehyde O-(2-((6-oxo-5-(trifluoromethyl)-1,6-dihydropyridazin-4-yl)amino)propyl) oxime] the same measures were less than 0.01 µM and 0.1 to 1 µM.

Turning to `CC1=C(CC(=O)NOC[C@H](C)Nc2cn[nH]c(=O)c2C(F)(F)F)CCN(c2ncc(-c3ccccc3F)cn2)C1` [Example 28, (S)-2-(1-(5-(2-fluorophenyl)pyrimidin-2-yl)-5-methyl-1,2,3,6-tetrahydropyridin-4-yl)-N-(2-((6-oxo-5-(trifluoromethyl)-1,6-dihydropyridazin-4-yl)amino)propoxy)acetamide], the half-inhibitory concentration (IC50) in experiment [1] was less than 0.01 µM; in the experiment on NCI-H1373 cancer cells, 0.1 to 1 µM. Take `C[C@@H](CONC(=O)CC1=CCN(c2ncc(C3CC3)cn2)CC1)Nc1cn[nH]c(=O)c1C(F)(F)F` [Example 29, (S)-2-(1-(5-cyclopropylpyrimidin-2-yl)-1,2,3,6-tetrahydropyridin-4-yl)-N-(2-((6-oxo-5-(trifluoromethyl)-1,6-dihydropyridazin-4-yl)amino)propoxy)acetamide]: the figures for the IC50 (in experiment [1]; in the experiment on NCI-H1373 cancer cells) were less than 0.01 µM and less than 0.1 µM, respectively.

With `CC1CN(c2ncc(-c3ccccc3F)cn2)CC=C1CC(=O)NOC[C@H](C)Nc1cn[nH]c(=O)c1C(F)(F)F` (stereo partly drawn) [Example 27, 2-(1-(5-(2-fluorophenyl)pyrimidin-2-yl)-3-methyl-1,2,3,6-tetrahydropyridin-4-yl)-N—((S)-2-((6-oxo-5-(trifluoromethyl)-1,6-dihydropyridazin-4-yl)amino)propoxy)acetamide], the IC50 in experiment [1] was less than 0.01 µM; with NCI-H1373 cancer cells, 0.1 to 1 µM. As for `C[C@@H](/C=N/OCCC1CCN(c2ncc(C(F)(F)F)cn2)CC1)Nc1cn[nH]c(=O)c1C(F)(F)F` [Example 14, (S,E)-2-((6-oxo-5-(trifluoromethyl)-1,6-dihydropyridazin-4-yl)amino)propanal O-(2-(1-(5-(trifluoromethyl)pyrimidin-2-yl)piperidin-4-yl)ethyl) oxime], the 50% inhibitory concentration (IC50) in experiment [1] is less than 0.01 µM; with NCI-H1373 cancer cells it was 1 to 10 µM. On to `C[C@@H](CONC(=O)CC1=CCN(c2ncc(-c3ccccc3F)cn2)CC1)Nc1cn[nH]c(=O)c1C(F)(F)F` [Example 26, (S)-2-(1-(5-(2-fluorophenyl)pyrimidin-2-yl)-1,2,3,6-tetrahydropyridin-4-yl)-N-(2-((6-oxo-5-(trifluoromethyl)-1,6-dihydropyridazin-4-yl)amino)propoxy)acetamide], for which the IC50 in experiment [1] is less than 0.01 µM; in the experiment with NCI-H1373 cancer cells it was less than 0.1 µM. On the same counts, the results for `CC(/C=N/OCC(=O)N1CCN(c2ccc(C(F)(F)F)cn2)CC1)c1cccc2c(=O)[nH]ncc12` (stereo not drawn) [Example 19, (E)-2-(1-oxo-1,2-dihydrophthalazin-5-yl)propanal O-(2-oxo-2-(4-(5-(trifluoromethyl)pyridin-2-yl)piperazin-1-yl)ethyl) oxime] are less than 0.01 µM and 1 to 10 µM. Consider `C[C@@H](CN(C)OCC(=O)N1CCN(c2ncc(C(F)(F)F)cn2)CC1)Nc1cn[nH]c(=O)c1C(F)(F)F` [Example 2, (S)-5-((1-(methyl(2-oxo-2-(4-(5-(trifluoromethyl)pyrimidin-2-yl)piperazin-1-yl)ethoxy)amino)propan-2-yl)amino)-4-(trifluoromethyl)pyridazin-3(2H)-one], for which the concentration for half-maximal inhibition (IC50) in experiment [1] is less than 0.01 µM. On to `C[C@@H](CONC(=O)C(F)C1=CCN(c2ncc(C(F)(F)F)cn2)CC1)Nc1cn[nH]c(=O)c1C(F)(F)F` (stereo partly drawn) [Example 22, 2-fluoro-N—((S)-2-((6-oxo-5-(trifluoromethyl)-1,6-dihydropyridazin-4-yl)amino)propoxy)-2-(1-(5-(trifluoromethyl)pyrimidin-2-yl)-1,2,3,6-tetrahydropyridin-4-yl) acetamide], for which the IC50 in experiment [1] was less than 0.01 µM; in the experiment with NCI-H1373 cancer cells it was less than 0.1 µM. Consider `CCN(C[C@H](C)Nc1cn[nH]c(=O)c1C(F)(F)F)OCC(=O)N1CCN(c2ncc(C(F)(F)F)cn2)CC1` [Example 3, (S)-5-((1-(ethyl(2-oxo-2-(4-(5-(trifluoromethyl)pyrimidin-2-yl)piperazin-1-yl)ethoxy)amino)propan-2-yl)amino)-4-(trifluoromethyl)pyridazin-3(2H)-one], for which the 50% inhibitory concentration (IC50) in experiment [1] fell in the range of 0.01 to 0.1 µM. As to `C/C(=N\OCC(=O)N1CCN(c2ncc(C(F)(F)F)cn2)CC1)[C@H](C)Nc1cn[nH]c(=O)c1C(F)(F)F` [Example 8, (S,E)-5-((3-((2-oxo-2-(4-(5-(trifluoromethyl)pyrimidin-2-yl)piperazin-1-yl)ethoxy)imino)butan-2-yl)amino)-4-(trifluoromethyl)pyridazin-3(2H)-one], the IC50 in experiment [1] was in the range of 0.01 to 0.1 µM.
